In article PMC6261661 (ACS chemical neuroscience, 2018):
Where “and” joins values, the source holds several entries; their conditions need not be identical. Equal entries are not always repeated. Where two headings read alike, the source gives them in different places. Square brackets hold non-standard residues; d marks the D form. Peptide text beside a SMILES is read from it. dPhe(4-I) = N[C@H](Cc1ccc(I)cc1)C(=O)O; 2Nal = N[C@@H](Cc1ccc2ccccc2c1)C(=O)O; 3Pal = N[C@@H](Cc1cccnc1)C(=O)O; 4Pal = N[C@@H](Cc1ccncc1)C(=O)O

Tests used:
[1] = target: T1, mMC5R (Mus musculus, UniProt P41149); experiment: CRE/β-galactosidase reporter gene bioassay, agonist activity at mMC5R; assay type: cell-based
[2] = system: male and female mice; conditions: central administration, ref [37]; cited from earlier work
[3] = target: T2, mMC1R (Mus musculus, UniProt Q01727); experiment: CRE/β-galactosidase reporter gene bioassay, agonist activity at mMC1R; assay type: cell-based
[4] = target: T3, mMC4R (Mus musculus, UniProt P56450); experiment: Antagonist Schild analysis against agonist MTII at mMC4R; assay type: cell-based
[5] = target: T4, mMC3R (Mus musculus, UniProt P33033); experiment: Antagonist Schild analysis against agonist MTII at mMC3R; assay type: cell-based
[6] = target: T3, mMC4R; experiment: CRE/β-galactosidase reporter gene bioassay, agonist activity at mMC4R; assay type: cell-based; conditions: ligand at 100 μM, compared to maximal response generated by α-MSH
[7] = target: T3, mMC4R; conditions: read-out: mMC4R EC50, reference peptide from the literature, cited from earlier work
[8] = target: T2, mMC1R; conditions: read-out: mMC1R EC50, reference peptide from the literature, cited from earlier work
[9] = target: T1, mMC5R; conditions: read-out: mMC5R EC50, reference peptide from the literature, cited from earlier work
[10] = target: T4, mMC3R; conditions: cited from earlier work; for EC50: read-out: mMC3R EC50, reference peptide from the literature
[11] = fold difference in EC50 vs peptide 1, negative prefix = more potent than 1
[12] = Ant = antagonist, SA = some stimulatory activity at 100 µM

T3 sequence (P56450 whole entry): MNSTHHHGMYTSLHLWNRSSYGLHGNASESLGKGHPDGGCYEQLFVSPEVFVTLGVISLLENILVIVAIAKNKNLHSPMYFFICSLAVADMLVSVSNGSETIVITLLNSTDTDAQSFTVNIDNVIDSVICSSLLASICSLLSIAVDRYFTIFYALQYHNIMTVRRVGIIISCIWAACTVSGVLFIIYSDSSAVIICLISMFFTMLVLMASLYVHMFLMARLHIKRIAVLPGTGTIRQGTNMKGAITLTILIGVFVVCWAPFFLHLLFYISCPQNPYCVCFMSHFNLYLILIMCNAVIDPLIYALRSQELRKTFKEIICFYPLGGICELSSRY
T4 sequence (P33033 whole entry): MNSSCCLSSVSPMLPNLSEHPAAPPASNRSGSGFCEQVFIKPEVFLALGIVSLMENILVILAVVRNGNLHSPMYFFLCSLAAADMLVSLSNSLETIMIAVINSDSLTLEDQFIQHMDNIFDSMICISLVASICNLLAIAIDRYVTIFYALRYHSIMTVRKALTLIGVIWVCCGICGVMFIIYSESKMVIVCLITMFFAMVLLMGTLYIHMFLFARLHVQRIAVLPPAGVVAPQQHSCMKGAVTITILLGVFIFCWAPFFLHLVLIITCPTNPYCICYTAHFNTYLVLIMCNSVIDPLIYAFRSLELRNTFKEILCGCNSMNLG
T2 sequence (Q01727 whole entry): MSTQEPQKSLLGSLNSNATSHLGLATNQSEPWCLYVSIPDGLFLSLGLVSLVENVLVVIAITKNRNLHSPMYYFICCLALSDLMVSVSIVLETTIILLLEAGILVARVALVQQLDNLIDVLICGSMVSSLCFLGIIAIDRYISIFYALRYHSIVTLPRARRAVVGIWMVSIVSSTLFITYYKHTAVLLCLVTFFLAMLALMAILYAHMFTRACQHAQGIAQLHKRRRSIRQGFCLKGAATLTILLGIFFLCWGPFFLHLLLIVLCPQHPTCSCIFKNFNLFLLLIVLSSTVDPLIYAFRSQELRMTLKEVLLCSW
T1 sequence (P41149 whole entry): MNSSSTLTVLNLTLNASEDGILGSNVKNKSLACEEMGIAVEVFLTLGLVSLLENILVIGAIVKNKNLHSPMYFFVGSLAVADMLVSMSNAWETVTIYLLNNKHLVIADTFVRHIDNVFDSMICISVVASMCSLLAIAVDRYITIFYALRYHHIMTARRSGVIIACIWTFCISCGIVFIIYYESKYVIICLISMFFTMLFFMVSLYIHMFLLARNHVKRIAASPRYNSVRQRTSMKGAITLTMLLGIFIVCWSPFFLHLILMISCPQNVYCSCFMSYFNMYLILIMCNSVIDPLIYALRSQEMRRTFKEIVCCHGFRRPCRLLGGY

CC(=O)N[C@@H](Cc1c[nH]c2ccccc12)C(=O)N[C@H](Cc1ccc(I)cc1)C(=O)N[C@@H](CCCNC(=N)N)C(=O)N[C@@H](Cc1c[nH]c2ccccc12)C(N)=O [Peptide 13, Ac-Trp-(pI)DPhe-Arg-Trp-NH2] (Ac-W[dPhe(4-I)]RW-NH2)
EC50 [1]: 10 ± 3 µM
mMC5R Fold Diff. [1, 11]: 1905
mMC5R fold less potent than peptide 1 ([1]; less potent than 1): 1900 fold
effect on energy homeostasis in vivo [2]: different effects on energy homeostasis in male mice compared to female mice
mMC1R Fold Diff [3, 11]: 30
EC50 ([3]; mMC1R EC50, agonist, HEK-293 cells stably expressing receptor, ±SEM): 4.2 ± 1.2 µM
Kb [4]: 5.01 nM
mMC4R pharmacology class printed in Fold Diff. column (Ant, SA) [4, 12]: SA Ant
Kb [5]: 63.1 nM
mMC3R pharmacology class printed in Fold Diff column (Ant, SA) [5, 12]: Ant
mMC4R relative percentage of stimulation at 100 μM [6]: 40%

CC(=O)N[C@@H](Cc1c[nH]cn1)C(=O)N[C@H](Cc1ccccc1)C(=O)N[C@@H](CCCNC(=N)N)C(=O)N[C@@H](Cc1ccc2ccccc2c1)C(N)=O [Peptide 39, Ac-His-DPhe-Arg-Nal(2’)-NH2] (Ac-H[dF]R[2Nal]-NH2)
selectivity between the mMC1R and the mMC5R ([1]; monosubstituted reference peptides, from literature EC50 values of Table 3): ≤ 5 fold
EC50 ([7]; ref [31]): 16 nM and 15.8 nM
EC50 ([8]; ref [31]): 17.9 ± 6 nM
EC50 ([9]; ref [31]): 4.9 ± 1.5 nM
EC50 ([10]; ref [31]): 0.74 ± 0.16 µM

Ac-His-DNal(1’)-Arg-Trp-NH2 [Peptide 46]
EC50 ([7]; ref [32]): 300 ± 70 nM
EC50 ([8]; ref [32]): 360 ± 60 nM
EC50 ([9]; ref [32]): 51 ± 4 nM
EC50 ([10]; ref [32]): 4.1 ± 0.1 µM

Ac-His-DPhe-Arg-3Bal-NH2 [Peptide 44]
EC50 ([7]; ref [31]): 140 ± 20 nM
EC50 ([8]; ref [31]): 80 ± 9 nM
EC50 ([9]; ref [31]): 48 ± 4 nM
EC50 ([10]; ref [31]): 3.7 ± 1.4 µM

Ac-His-DPhe-Arg-Phe-NH2 (Ac-H[dF]RF-NH2; SMILES CC(=O)N[C@@H](Cc1c[nH]cn1)C(=O)N[C@H](Cc1ccccc1)C(=O)N[C@@H](CCCNC(=N)N)C(=O)N[C@@H](Cc1ccccc1)C(N)=O) [Peptide 37]
EC50 ([7]; ref [31]): 7800 ± 2500 nM
EC50 ([8]; ref [31]): 530 ± 240 nM
EC50 ([9]; ref [31]): 890 ± 110 nM
EC50 ([10]; ref [31]): 27 ± 7 µM

Ac-Phe-DPhe-Arg-Trp-NH2 (Ac-F[dF]RW-NH2; SMILES CC(=O)N[C@@H](Cc1ccccc1)C(=O)N[C@H](Cc1ccccc1)C(=O)N[C@@H](CCCNC(=N)N)C(=O)N[C@@H](Cc1c[nH]c2ccccc12)C(N)=O) [Peptide 48]
EC50 ([7]; ref [33]): 71 ± 14 nM
EC50 ([8]; ref [33]): 500 ± 100 nM
EC50 ([9]; ref [33]): 140 ± 5 nM
EC50 ([10]; ref [33]): 12 ± 2 µM

Ac-Trp-DPhe-Arg-Trp-NH2 (Ac-W[dF]RW-NH2; SMILES CC(=O)N[C@@H](Cc1c[nH]c2ccccc12)C(=O)N[C@H](Cc1ccccc1)C(=O)N[C@@H](CCCNC(=N)N)C(=O)N[C@@H](Cc1c[nH]c2ccccc12)C(N)=O) [Peptide 49]
EC50 ([7]; ref [33]): 530 ± 150 nM
EC50 ([8]; ref [33]): 5400 ± 1800 nM
EC50 ([9]; ref [33]): 510 ± 100 nM
EC50 ([10]; ref [33]): 10 ± 2 µM

Ac-[3Pal][dF]RW-NH2 [Peptide 50]
EC50 ([7]; ref [33]): 890 ± 100 nM
EC50 ([8]; ref [33]): 1200 ± 200 nM
EC50 ([9]; ref [33]): 400 ± 100 nM
mMC3R pharmacology in words ([10]; ref [33]): only slight agonist activity

Ac-[4Pal][dF]RW-NH2 [Peptide 51]
EC50 ([7]; ref [33]): 130 ± 30 nM
EC50 ([8]; ref [33]): 180 ± 80 nM
EC50 ([9]; ref [33]): 93 ± 22 nM
EC50 ([10]; ref [33]): 2.3 ± 0.8 µM
